Nine molecules from ChEMBL document CHEMBL5303573, “Mapping human microbiome drug metabolism by gut bacteria and their genes” (Nature, 2019) can be followed below.

A short description of one data set: The drug is tested on Anaerococcus hydrogenalis strain: DSM7454 for biotransformation. The drug concentrations were measured before and after a 12-h incubation by liquid-chromatography-coupled mass spectrometry (LC–MS). Particulars: 2 µM.
`CN(C)CCOC(C)(c1ccccc1)c1ccccn1.O=C(O)CCC(=O)O` (configuration not stated) [DOXYLAMINE SUCCINATE]: the “Bacterial Biotransformation” value is reported as “Compound NOT metabolized”.

For the molecule `CC1OC(OC2C(O)CC(OC3C(O)CC(OC4CCC5(C)C(CCC6C5CCC5(C)C(C7=CC(=O)OC7)CCC65O)C4)OC3C)OC2C)CC(O)C1O` (configuration not stated), the “Bacterial Biotransformation” value was “Compound NOT metabolized”.

`COc1cc2nc(N3CCN(C(=O)C4COc5ccccc5O4)CC3)nc(N)c2cc1OC.CS(=O)(=O)O` (configuration not stated) [DOXAZOSIN MESYLATE]: the “Bacterial Biotransformation” value was “Compound NOT metabolized”.

For the molecule `CC(=O)OCC(=O)[C@@]1(OC(C)=O)[C@@H](C)C[C@H]2[C@@H]3C[C@H](F)C4=CC(=O)C=C[C@]4(C)[C@@]3(F)[C@@H](O)C[C@@]21C` [DIFLORASONE DIACETATE], the “Bacterial Biotransformation” value is on record as “Compound NOT metabolized”.

For the molecule `NC(=O)N1c2ccccc2CC(=O)c2ccccc21` [OXCARBAZEPINE], the “Bacterial Biotransformation” value is listed as “Compound NOT metabolized”.

As for `CN(C(=O)CN(CCO)CC(=O)N(C)C(C)(C)Cc1ccccc1)C(C)(C)Cc1ccccc1` [OXETHAZAINE], the “Bacterial Biotransformation” value is given as “Compound NOT metabolized”.

Turning to `O=c1[nH]c2ccccc2n1CCCN1CCC(n2c(=O)[nH]c3cc(Cl)ccc32)CC1` [DOMPERIDONE], the “Bacterial Biotransformation” value is on record as “Compound NOT metabolized”.

`CC(=O)O[C@]1(C(C)=O)CC[C@H]2[C@@H]3C=C(Cl)C4=CC(=O)[C@@H]5C[C@@H]5[C@]4(C)[C@H]3CC[C@@]21C` [CYPROTERONE ACETATE]: the “Bacterial Biotransformation” value is listed as “Compound NOT metabolized”.

For `N#Cc1ccc(C(c2ccc(C#N)cc2)n2cncn2)cc1` [LETROZOLE], the “Bacterial Biotransformation” value was “Compound NOT metabolized”.

For another data set the following is noted: bacteroides fragilis, 12 h, 2 µM.
Description: The drug is tested on Bacteroides fragilis strain: DS-208 for biotransformation. The drug concentrations were measured before and after a 12-h incubation by liquid-chromatography-coupled mass spectrometry (LC–MS)
Take `CN(C)CCOC(C)(c1ccccc1)c1ccccn1.O=C(O)CCC(=O)O` (configuration not stated) [DOXYLAMINE SUCCINATE]: the “Bacterial Biotransformation” value is “Compound NOT metabolized”.

Consider `CC1OC(OC2C(O)CC(OC3C(O)CC(OC4CCC5(C)C(CCC6C5CCC5(C)C(C7=CC(=O)OC7)CCC65O)C4)OC3C)OC2C)CC(O)C1O` (configuration not stated), for which the “Bacterial Biotransformation” value is reported as “Compound metabolized”.

As for `COc1cc2nc(N3CCN(C(=O)C4COc5ccccc5O4)CC3)nc(N)c2cc1OC.CS(=O)(=O)O` (configuration not stated) [DOXAZOSIN MESYLATE], the “Bacterial Biotransformation” value is “Compound NOT metabolized”.

Take `CC(=O)OCC(=O)[C@@]1(OC(C)=O)[C@@H](C)C[C@H]2[C@@H]3C[C@H](F)C4=CC(=O)C=C[C@]4(C)[C@@]3(F)[C@@H](O)C[C@@]21C` [DIFLORASONE DIACETATE]: the “Bacterial Biotransformation” value is “Compound metabolized”.

Turning to `O=c1[nH]c2ccccc2n1CCCN1CCC(n2c(=O)[nH]c3cc(Cl)ccc32)CC1` [DOMPERIDONE], the “Bacterial Biotransformation” value was “Compound NOT metabolized”.

Consider `CC(=O)O[C@]1(C(C)=O)CC[C@H]2[C@@H]3C=C(Cl)C4=CC(=O)[C@@H]5C[C@@H]5[C@]4(C)[C@H]3CC[C@@]21C` [CYPROTERONE ACETATE], for which the “Bacterial Biotransformation” value is listed as “Compound metabolized”.

On to `N#Cc1ccc(C(c2ccc(C#N)cc2)n2cncn2)cc1` [LETROZOLE], for which the “Bacterial Biotransformation” value was “Compound NOT metabolized”.

For a further data set the following is noted: bacteroides eggerthii, 12 h, 2 µM.
Description: The drug is tested on Bacteroides eggerthii strain: DSM20697 for biotransformation. The drug concentrations were measured before and after a 12-h incubation by liquid-chromatography-coupled mass spectrometry (LC–MS)
For the molecule `CN(C)CCOC(C)(c1ccccc1)c1ccccn1.O=C(O)CCC(=O)O` (configuration not stated) [DOXYLAMINE SUCCINATE], the “Bacterial Biotransformation” value is given as “Compound NOT metabolized”.

In the case of `CC1OC(OC2C(O)CC(OC3C(O)CC(OC4CCC5(C)C(CCC6C5CCC5(C)C(C7=CC(=O)OC7)CCC65O)C4)OC3C)OC2C)CC(O)C1O` (configuration not stated), the “Bacterial Biotransformation” value was “Compound metabolized”.

In the case of `COc1cc2nc(N3CCN(C(=O)C4COc5ccccc5O4)CC3)nc(N)c2cc1OC.CS(=O)(=O)O` (configuration not stated) [DOXAZOSIN MESYLATE], the “Bacterial Biotransformation” value is listed as “Compound NOT metabolized”.

As to `CC(=O)OCC(=O)[C@@]1(OC(C)=O)[C@@H](C)C[C@H]2[C@@H]3C[C@H](F)C4=CC(=O)C=C[C@]4(C)[C@@]3(F)[C@@H](O)C[C@@]21C` [DIFLORASONE DIACETATE], the “Bacterial Biotransformation” value is on record as “Compound metabolized”.

As to `NC(=O)N1c2ccccc2CC(=O)c2ccccc21` [OXCARBAZEPINE], the “Bacterial Biotransformation” value was “Compound NOT metabolized”.

`CN(C(=O)CN(CCO)CC(=O)N(C)C(C)(C)Cc1ccccc1)C(C)(C)Cc1ccccc1` [OXETHAZAINE]: the “Bacterial Biotransformation” value was “Compound NOT metabolized”.

Take `O=c1[nH]c2ccccc2n1CCCN1CCC(n2c(=O)[nH]c3cc(Cl)ccc32)CC1` [DOMPERIDONE]: the “Bacterial Biotransformation” value is on record as “Compound NOT metabolized”.

As to `CC(=O)O[C@]1(C(C)=O)CC[C@H]2[C@@H]3C=C(Cl)C4=CC(=O)[C@@H]5C[C@@H]5[C@]4(C)[C@H]3CC[C@@]21C` [CYPROTERONE ACETATE], the “Bacterial Biotransformation” value is reported as “Compound metabolized”.

Turning to `N#Cc1ccc(C(c2ccc(C#N)cc2)n2cncn2)cc1` [LETROZOLE], the “Bacterial Biotransformation” value is recorded as “Compound NOT metabolized”.

The next data set is described as follows: The drug is tested on Eggerthella lenta strain: ATCC25559 for biotransformation. The drug concentrations were measured before and after a 12-h incubation by liquid-chromatography-coupled mass spectrometry (LC–MS). Particulars: 2 µM.
In the case of `NC(=O)N1c2ccccc2CC(=O)c2ccccc21` [OXCARBAZEPINE], the “Bacterial Biotransformation” value is “Compound metabolized”.

Turning to `CN(C(=O)CN(CCO)CC(=O)N(C)C(C)(C)Cc1ccccc1)C(C)(C)Cc1ccccc1` [OXETHAZAINE], the “Bacterial Biotransformation” value was “Compound NOT metabolized”.

The nature of another data set: The drug is tested on Bacteroides uniformis strain: ATCC8492 for biotransformation. The drug concentrations were measured before and after a 12-h incubation by liquid-chromatography-coupled mass spectrometry (LC–MS). As to conditions: 2 µM.
In the case of `CN(C)CCOC(C)(c1ccccc1)c1ccccn1.O=C(O)CCC(=O)O` (configuration not stated) [DOXYLAMINE SUCCINATE], the “Bacterial Biotransformation” value is listed as “Compound NOT metabolized”.

`CC1OC(OC2C(O)CC(OC3C(O)CC(OC4CCC5(C)C(CCC6C5CCC5(C)C(C7=CC(=O)OC7)CCC65O)C4)OC3C)OC2C)CC(O)C1O` (configuration not stated): the “Bacterial Biotransformation” value is given as “Compound metabolized”.

Take `COc1cc2nc(N3CCN(C(=O)C4COc5ccccc5O4)CC3)nc(N)c2cc1OC.CS(=O)(=O)O` (configuration not stated) [DOXAZOSIN MESYLATE]: the “Bacterial Biotransformation” value is listed as “Compound metabolized”.

Regarding `CC(=O)OCC(=O)[C@@]1(OC(C)=O)[C@@H](C)C[C@H]2[C@@H]3C[C@H](F)C4=CC(=O)C=C[C@]4(C)[C@@]3(F)[C@@H](O)C[C@@]21C` [DIFLORASONE DIACETATE], the “Bacterial Biotransformation” value is “Compound metabolized”.

For the molecule `NC(=O)N1c2ccccc2CC(=O)c2ccccc21` [OXCARBAZEPINE], the “Bacterial Biotransformation” value is reported as “Compound metabolized”.

As for `O=c1[nH]c2ccccc2n1CCCN1CCC(n2c(=O)[nH]c3cc(Cl)ccc32)CC1` [DOMPERIDONE], the “Bacterial Biotransformation” value is listed as “Compound NOT metabolized”.

For `CC(=O)O[C@]1(C(C)=O)CC[C@H]2[C@@H]3C=C(Cl)C4=CC(=O)[C@@H]5C[C@@H]5[C@]4(C)[C@H]3CC[C@@]21C` [CYPROTERONE ACETATE], the “Bacterial Biotransformation” value is “Compound metabolized”.

Turning to `N#Cc1ccc(C(c2ccc(C#N)cc2)n2cncn2)cc1` [LETROZOLE], the “Bacterial Biotransformation” value is reported as “Compound NOT metabolized”.

The conditions of another data set: victivallis vadensis, 12 h, 2 µM.
Description: The drug is tested on Victivallis vadensis strain: ATCC BAA-548 for biotransformation. The drug concentrations were measured before and after a 12-h incubation by liquid-chromatography-coupled mass spectrometry (LC–MS)
Regarding `CN(C)CCOC(C)(c1ccccc1)c1ccccn1.O=C(O)CCC(=O)O` (configuration not stated) [DOXYLAMINE SUCCINATE], the “Bacterial Biotransformation” value is recorded as “Compound NOT metabolized”.

Take `CC1OC(OC2C(O)CC(OC3C(O)CC(OC4CCC5(C)C(CCC6C5CCC5(C)C(C7=CC(=O)OC7)CCC65O)C4)OC3C)OC2C)CC(O)C1O` (configuration not stated): the “Bacterial Biotransformation” value is “Compound NOT metabolized”.

`COc1cc2nc(N3CCN(C(=O)C4COc5ccccc5O4)CC3)nc(N)c2cc1OC.CS(=O)(=O)O` (configuration not stated) [DOXAZOSIN MESYLATE]: the “Bacterial Biotransformation” value was “Compound NOT metabolized”.

`CC(=O)OCC(=O)[C@@]1(OC(C)=O)[C@@H](C)C[C@H]2[C@@H]3C[C@H](F)C4=CC(=O)C=C[C@]4(C)[C@@]3(F)[C@@H](O)C[C@@]21C` [DIFLORASONE DIACETATE]: the “Bacterial Biotransformation” value is “Compound metabolized”.

Turning to `NC(=O)N1c2ccccc2CC(=O)c2ccccc21` [OXCARBAZEPINE], the “Bacterial Biotransformation” value is recorded as “Compound NOT metabolized”.

Take `CN(C(=O)CN(CCO)CC(=O)N(C)C(C)(C)Cc1ccccc1)C(C)(C)Cc1ccccc1` [OXETHAZAINE]: the “Bacterial Biotransformation” value is given as “Compound NOT metabolized”.

For the molecule `O=c1[nH]c2ccccc2n1CCCN1CCC(n2c(=O)[nH]c3cc(Cl)ccc32)CC1` [DOMPERIDONE], the “Bacterial Biotransformation” value is recorded as “Compound NOT metabolized”.

As for `CC(=O)O[C@]1(C(C)=O)CC[C@H]2[C@@H]3C=C(Cl)C4=CC(=O)[C@@H]5C[C@@H]5[C@]4(C)[C@H]3CC[C@@]21C` [CYPROTERONE ACETATE], the “Bacterial Biotransformation” value is “Compound NOT metabolized”.

For the molecule `N#Cc1ccc(C(c2ccc(C#N)cc2)n2cncn2)cc1` [LETROZOLE], the “Bacterial Biotransformation” value is on record as “Compound NOT metabolized”.

For another data set the following is noted: bacteroides thetaiotaomicron, 12 h, 2 µM.
Description: The drug is tested on Bacteroides thetaiotaomicron strain: 7330 for biotransformation. The drug concentrations were measured before and after a 12-h incubation by liquid-chromatography-coupled mass spectrometry (LC–MS)
For the molecule `CN(C)CCOC(C)(c1ccccc1)c1ccccn1.O=C(O)CCC(=O)O` (configuration not stated) [DOXYLAMINE SUCCINATE], the “Bacterial Biotransformation” value was “Compound NOT metabolized”.

Consider `CC1OC(OC2C(O)CC(OC3C(O)CC(OC4CCC5(C)C(CCC6C5CCC5(C)C(C7=CC(=O)OC7)CCC65O)C4)OC3C)OC2C)CC(O)C1O` (configuration not stated), for which the “Bacterial Biotransformation” value is on record as “Compound metabolized”.

With `COc1cc2nc(N3CCN(C(=O)C4COc5ccccc5O4)CC3)nc(N)c2cc1OC.CS(=O)(=O)O` (configuration not stated) [DOXAZOSIN MESYLATE], the “Bacterial Biotransformation” value is listed as “Compound NOT metabolized”.

Consider `CC(=O)OCC(=O)[C@@]1(OC(C)=O)[C@@H](C)C[C@H]2[C@@H]3C[C@H](F)C4=CC(=O)C=C[C@]4(C)[C@@]3(F)[C@@H](O)C[C@@]21C` [DIFLORASONE DIACETATE], for which the “Bacterial Biotransformation” value was “Compound metabolized”.

As for `CN(C(=O)CN(CCO)CC(=O)N(C)C(C)(C)Cc1ccccc1)C(C)(C)Cc1ccccc1` [OXETHAZAINE], the “Bacterial Biotransformation” value was “Compound NOT metabolized”.

As for `O=c1[nH]c2ccccc2n1CCCN1CCC(n2c(=O)[nH]c3cc(Cl)ccc32)CC1` [DOMPERIDONE], the “Bacterial Biotransformation” value is “Compound NOT metabolized”.

In the case of `CC(=O)O[C@]1(C(C)=O)CC[C@H]2[C@@H]3C=C(Cl)C4=CC(=O)[C@@H]5C[C@@H]5[C@]4(C)[C@H]3CC[C@@]21C` [CYPROTERONE ACETATE], the “Bacterial Biotransformation” value is “Compound metabolized”.

`N#Cc1ccc(C(c2ccc(C#N)cc2)n2cncn2)cc1` [LETROZOLE]: the “Bacterial Biotransformation” value is given as “Compound NOT metabolized”.
